In patent publication US4849424A, “Pyrimidine derivatives” (Nissin Shokuhin Kabushiki Kaisha, priority 1986, dated 1989):

Assays:
[1] = system: gastric lesions; assay: HCl-ethanol-induced gastric lesions in rats (cytoprotective effect); type: in vivo, Male Sprague-Dawley rats; details: Rattus norvegicus, po; for inhibition in vivo at 10 mg/kg: 10 mg/kg p.o. in 1% CMC, 30 minutes before 150 mM HCl-60% ethanol, 3 rats per group, lesions measured 1 hour later, read-out: Inhibition (inhibitory rate of ulcer length vs control); for ED50: 30 minutes before HCl-ethanol
Description: Male Sprague-Dawley rats (body weight: 220-240 g, 7 weeks) were deprived of food but allowed free access to water for 24 hours prior to the experiments. Each control and experimental group consisted of 3 rats. One hundred and fifty mM HCl-60% ethanol (v/v) was given p.o. in a volume of 1 ml/rat. The animals were sacrificed 1 hour later, and the stomach was removed and inflated by injecting 10 ml of 2% formalin to fix the inner and outer layers of the gastric walls. Subsequently, the stomach was incised along the greater curvature and washed gently with ice-cold saline.
Gastric lesions were identified in the grandular portion. The length of lesions was measured in millimeters (mm) under a dissecting microscope with a square grid (×10), and lesion severity was expressed as the total length of lesions per stomach.
Test compound (I) (10 mg/kg), suspended in 1% carboxymethyl cellulose (CMC), or 1% carboxymethyl cellulose for the control was orally administered 30 minutes before HCl-ethanol administration. The ulcer length of the treated group and the control group were compared and the inhibitory rates were calculated.

[2] = system: ulcer; assay: Restraint-immersion stress ulcer in rats (anti-stress ulcer activity); type: in vivo, Male Sprague-Dawley rats; details: 32 mg/kg p.o. in 0.1% MC, 5 minutes before restraint-immersion for 7 hours at 22° C.
Description: Male Sprague-Dawley rats (body weight: 230-280 g) were placed under restraint in a stress cage after fasting for 15 hours, and immersed vertically in the water bath kept at 22° C. to the level of the xiphoid of the animal. After restraint-immersion for 7 hours the animals were killed, and the stomach from each animal was fixed with formalin.
Each stomach was opened by cutting along the greater curvature, and ulcer area (mm^2) was measured with a stereoscopic microscope. Ulcer indices of the treated group and the control group were compared, and inhibitory rates were calculated. The tested compound, either 4,6-bis(1-pyrazolyl) pyrimidine (32 mg/kg) suspended in 0.1% methylcellulose (MC) or 0.1% methylcellulose (MC) alone, was orally administered 5 minutes before the restraint-immersion.

[3] = Oral acute toxicity (LD50) in rats; details: rat, in vivo, 0.3% CMC-Na suspension, 72 hours observation, 10 rats per group, Probit method
Description: A 0.3% CMC-Na suspension of a test compound was orally administered to groups of Slc:Wistar/KY rats (male: 90-120 g), each group consisting of 10 rats. […] LD50 values were calculated by the Probit method to be as follows: […]

SMILES	inhibition in vivo at 10 mg/kg [1] [%]	ED50 [1] [mg/kg]	Inhibition (inhibitory rate of ulcer index vs control) [2] [%]	LD50 at 72 h [3] [mg/kg]
CCOc1cc(C)nc(-n2ccnc2)n1 [Example 10, 4-Ethoxy-2-(1-imidazolyl)-6-methylpyrimidine]	80.7			
COc1cc(C)nc(-n2ccnc2)n1 [Example 7, 2-(1-Imidazolyl)-4-methoxy-6-methylpyrimidine]	82.6			
CCOc1cc(C)nc(-n2cccn2)n1 [Example 11, 4-Ethoxy-6-methyl-2-(1-pyrazolyl)pyrimidine]	78.3			
c1cnn(-c2cc(-n3cccn3)ncn2)c1 [Example 1, 4,6-Bis(1-pyrazolyl)pyrimidine]	95.6	0.72	73.6	> 3000
CC(C)Oc1cc(-n2cccn2)ncn1 [Example 17, 6-Isopropoxy-4-(1-pyrazolyl)pyrimidine]	79.8			
COc1cc(-n2cccn2)ncn1 [Example 15, 6-Methoxy-4-(1-pyrazolyl)pyrimidine]	95.6			
c1cnn(-c2cc(N3CCCCC3)ncn2)c1 [Example 19, 6-Piperidino-4-(1-pyrazolyl)pyrimidine]	79.2			
c1cn(-c2ccnc(-n3ccnc3)n2)cn1 [Example 4, 2,4-Bis(1-imidazolyl)pyrimidine]	78.2			
COc1cc(-n2ccnc2)ncn1 [Example 16, 4-(1-Imidazolyl)-6-methoxypyrimidine]	91.3	5.6		400
COc1nc(C)cc(-n2cncn2)n1 [Example 9, 2-Methoxy-6-methyl-4-(1,2,4-triazol-1-yl)pyrimidine]	75.7			
COc1cc(C)nc(-n2cccn2)n1 [Example 6, 4-Methoxy-6-methyl-2-(1-pyrazolyl)pyrimidine]	87.2			
